Measurements as given in patent US20260250320A1, “LIPIDATED PEPTIDE INHIBITORS OF INTERLEUKIN-23 RECEPTOR” (Janssen Pharmaceutica NV, priority 2023, published 2026).
*1 amine or outer side, *2 acyl side, *3 side chain or, on linkers, in order; H or OH if unused. Where a SMILES comes first, the peptide text is derived from it. Bridges are numbered along the chain shown (N, C = ends). Side-chain parts run from the residue outwards. [ ]: non-standard residue; d: D form. The star is where a group is joined. ξ: configuration not given here. Me3N+(CH2)2O(CH2)2O(CH2)2CO = C[N+](C)(C)CCOCCOCCC(=O)*; Biotin = O=C1N[C@H]2[C@H](CS[C@H]2CCCCC(=O)*)N1; Trp(7-Me) = Cc1cccc2c(C[C@H](N)C(=O)O)c[nH]c12; C18 diacid = O=C(O)CCCCCCCCCCCCCCCCC(=O)*; γGlu = O=C(O)[C@H](CCC(=O)[*:2])N[*:1]; 2Nal = N[C@@H](Cc1ccc2ccccc2c1)C(=O)O; AEF = NCCOc1ccc(C[C@H](N)C(=O)O)cc1; X2 = C[N+](C)(C)C[C@@H](CC(=O)O)N*; αMeT = C[C@@H](O)[C@](C)(N)C(=O)O; 2Pal = N[C@@H](Cc1ccccn1)C(=O)O; 3Pal = N[C@@H](Cc1cccnc1)C(=O)O; PEG4 = NCCOCCOCCOCCOCCC(=O)O; Pen = CC(C)(S)[C@H](N)C(=O)O; Suc = O=C(CCC(=O)[*:2])[*:1]; Thp = NC1(C(=O)O)CCOCC1; ξN = NC(=O)CC(N)C(=O)O; AEEA = NCCOCCOCC(=O)O; Sar = CNCC(=O)O

How the values were obtained:
[1] = target: T1, IL-23R (Homo sapiens, UniProt Q5VWK5); test: IL23R Reporter Assay; type: cell-based; conditions: HEK293 cells containing IL-23R, IL-12Rβ1 and STAT-inducible firefly luciferase reporter; 10 ng/mL IL-23 (EC90); 5 h
T1 construct: HEK293 cells containing IL-23R, IL-12Rβ1 and a firefly luciferase reporter gene driven by a STAT-inducible promoter (Promega); host or cells: HEK293
T1 sequence (Q5VWK5 24-629): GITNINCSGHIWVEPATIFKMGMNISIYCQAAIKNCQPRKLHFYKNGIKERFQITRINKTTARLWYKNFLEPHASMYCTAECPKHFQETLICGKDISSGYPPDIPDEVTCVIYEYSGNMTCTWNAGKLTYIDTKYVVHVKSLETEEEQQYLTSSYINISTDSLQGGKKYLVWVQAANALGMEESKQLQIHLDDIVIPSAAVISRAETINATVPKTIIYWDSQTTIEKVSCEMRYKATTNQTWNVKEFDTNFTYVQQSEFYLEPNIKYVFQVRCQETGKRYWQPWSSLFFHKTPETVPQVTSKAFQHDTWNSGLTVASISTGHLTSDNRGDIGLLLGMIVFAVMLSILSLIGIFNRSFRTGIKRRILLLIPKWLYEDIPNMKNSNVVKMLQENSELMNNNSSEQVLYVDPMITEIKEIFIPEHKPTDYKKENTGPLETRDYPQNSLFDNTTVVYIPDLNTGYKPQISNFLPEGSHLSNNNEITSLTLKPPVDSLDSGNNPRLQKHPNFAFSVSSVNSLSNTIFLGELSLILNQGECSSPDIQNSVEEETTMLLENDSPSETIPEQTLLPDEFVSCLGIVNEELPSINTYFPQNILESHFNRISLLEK
Procedure, shortened: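 IC50 values were fitted with a 4-parameter Hill equation to luciferase signal, scaled between IL-23-only wells (0% inhibition) and 30 μM reference inhibitor (100%). The readout was a STAT-inducible reporter in IL-23R/IL-12Rβ1 HEK293 cells, stimulated with added 10 ng/mL IL-23 (EC90) for 5 h at 37° C and developed with BioGlo.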

[2] = system: IL-23-stimulated phosphorylated STAT3 in peripheral blood mononuclear cells (PBMCs); test: PBMC pSTAT3 Assay; type: cell-based; conditions: PBMCs from healthy donors; 30 min preincubation with peptide; IL-23 5 ng/mL for 30 min; phospho-STAT3 by MSD
Procedure, shortened: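 Phospho-STAT3 quantified by Meso Scale assay in lysates of PBMCs exposed to IL-23 (5 ng/mL, 30 min, 37 °C) after 30 min peptide pretreatment. Cells were cryopreserved donor PBMCs activated 4 days with anti-CD3 plus IL-1β (100 ng/mL) and starved ~4 h; IC50 reported.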

Row | SMILES | IC50 [1] [µM] | IC50 [2] [µM]
1 | CC(=O)NCCCC[C@@H]1NC(=O)[C@H](Cc2c[nH]c3c(C)cccc23)NC(=O)[C@H]([C@@H](C)O)NC(=O)[C@H](CC(N)=O)NC(=O)[C@@H](NC(=O)[C@@H](CCCNC(=N)N)NC(C)=O)C(C)(C)SSC(C)(C)[C@@H](C(=O)N[C@@H](Cc2ccc(OCCN)cc2)C(=O)N[C@@H](Cc2ccc3ccccc3c2)C(=O)NC2(C(=O)N[C@@H](CCCCNC(=O)CCC(=O)N[C@H](CC(=O)O)C[N+](C)(C)C)C(=O)N[C@@H](CC(N)=O)C(=O)N[C@@H](Cc3cccnc3)C(=O)N(C)CC(=O)N[C@@H](CCCCNC(=O)COCCOCCNC(=O)COCCOCCNC(=O)CC[C@H](NC(=O)CCCCCCCCCCCCCCCCC(=O)O)C(=O)O)C(N)=O)CCOCC2)NC1=O [compound 51, MeCO-r-Pen(3)-N-T-7MeW-K(Ac)-Pen(3)-AEF-2Nal-THP-K(d)-N-3Pya-Sar-K(PEG2PEG2gEC18OH)-CONH2] (Ac-[dR][Pen]NT[Trp(7-Me)]K(Ac)[Pen][AEF][2Nal][Thp]K([Suc-X2])N[3Pal][Sar]K([AEEA-AEEA-γGlu-C18 diacid])-NH2; disulfide 2-7) | ≥ 0.5 | < 0.0005
2 | CC(=O)NCCCC[C@@H]1NC(=O)[C@H](Cc2c[nH]c3c(C)cccc23)NC(=O)[C@H]([C@@H](C)O)NC(=O)[C@H](CC(N)=O)NC(=O)[C@@H](NC(=O)[C@@H](CCCNC(=N)N)NC(=O)CCC(=O)N[C@H](CC(=O)O)C[N+](C)(C)C)C(C)(C)SSC(C)(C)[C@@H](C(=O)N[C@@H](Cc2ccc(OCCN)cc2)C(=O)N[C@@H](Cc2ccc3ccccc3c2)C(=O)NC2(C(=O)N[C@@H](CCC(=O)O)C(=O)N[C@@H](CC(N)=O)C(=O)N[C@@H](Cc3cccnc3)C(=O)N(C)CC(=O)N[C@@H](CCCCNC(=O)COCCOCCNC(=O)COCCOCCNC(=O)CC[C@H](NC(=O)CCCCCCCCCCCCCCCCC(=O)O)C(=O)O)C(N)=O)CCOCC2)NC1=O [compound 54, succiniccarn-r-Pen(3)-N-T-7MeW-K(Ac)-Pen(3)-AEF-2Nal-THP-E-N-3Pya-Sar-K(PEG2PEG2gEC18OH)-CONH2] ({X2-Suc}-[dR][Pen]NT[Trp(7-Me)]K(Ac)[Pen][AEF][2Nal][Thp]EN[3Pal][Sar]K([AEEA-AEEA-γGlu-C18 diacid])-NH2; disulfide 2-7) | 0.05 to 0.5 | < 0.0005
3 | CC(=O)NCCCC[C@@H]1NC(=O)[C@H](Cc2c[nH]c3c(C)cccc23)NC(=O)[C@H]([C@@H](C)O)NC(=O)[C@H](CCCCNC(=O)COCCOCCNC(=O)COCCOCCNC(=O)CC[C@H](NC(=O)CCCCCCCCCCCCCCCCC(=O)O)C(=O)O)NC(=O)[C@@H](NC(=O)[C@@H](CCCNC(=N)N)NC(=O)CCOCCOCC[N+](C)(C)C)C(C)(C)SSC(C)(C)[C@@H](C(=O)N[C@@H](Cc2ccc(OCCN)cc2)C(=O)N[C@@H](Cc2ccc3ccccc3c2)C(=O)NC2(C(=O)N[C@@H](CCC(=O)O)C(=O)N[C@@H](CC(N)=O)C(=O)N[C@@H](Cc3cccnc3)C(=O)N(C)CC(N)=O)CCOCC2)NC1=O [compound 55, cPEG3aCO-r-Pen(3)-K(PEG2PEG2gEC18OH)-T-7MeW-K(Ac)-Pen(3)-AEF-2Nal-THP-E-N-3Pya-Sar-CONH2] ({Me3N+(CH2)2O(CH2)2O(CH2)2CO}-[dR][Pen]K([AEEA-AEEA-γGlu-C18 diacid])T[Trp(7-Me)]K(Ac)[Pen][AEF][2Nal][Thp]EN[3Pal][Sar]-NH2; disulfide 2-7) | 0.05 to 0.5 | < 0.0005

Further lines, with some results ahead:

Row | IC50 [1] [µM] | SMILES | IC50 [2] [µM]
4 | 0.05 to 0.5 | CC(=O)NCCCC[C@@H]1NC(=O)[C@H](Cc2c[nH]c3c(C)cccc23)NC(=O)[C@H]([C@@H](C)O)NC(=O)[C@H](CC(N)=O)NC(=O)[C@@H](NC(=O)[C@@H](CCCNC(=N)N)NC(=O)CCC(=O)N[C@H](CC(=O)O)C[N+](C)(C)C)C(C)(C)SSC(C)(C)[C@@H](C(=O)N[C@@H](Cc2ccc(OCCN)cc2)C(=O)N[C@@H](Cc2ccc3ccccc3c2)C(=O)NC2(C(=O)N[C@@H](CCCCNC(=O)COCCOCCNC(=O)COCCOCCNC(=O)CC[C@H](NC(=O)CCCCCCCCCCCCCCCCC(=O)O)C(=O)O)C(=O)N[C@@H](CC(N)=O)C(=O)N[C@@H](Cc3ccccn3)C(=O)N(C)CC(N)=O)CCOCC2)NC1=O [compound 49, succiniccarn-r-Pen(3)-N-T-7MeW-K(Ac)-Pen(3)-AEF-2Nal-THP-K(PEG2PEG2gEC18OH)-N-3Pya-Sar-CONH2] ({X2-Suc}-[dR][Pen]NT[Trp(7-Me)]K(Ac)[Pen][AEF][2Nal][Thp]K([AEEA-AEEA-γGlu-C18 diacid])N[2Pal][Sar]-NH2; disulfide 2-7) | < 0.0005
5 | 0.05 to 0.5 | C=C(O)[C@H](CCC(=O)NCCOCCOCC(=O)NCCOCCOCC(=O)NCCCC[C@H](NC(=O)CN(C)C(=O)[C@H](Cc1cccnc1)NC(=O)[C@H](CC(N)=O)NC(=O)[C@H](CCCCNC(=O)CCC(=O)N[C@H](CC(=O)O)C[N+](C)(C)C)NC(=O)C1(NC(=O)[C@H](Cc2ccc3ccccc3c2)NC(=O)[C@H](Cc2ccc(OCCN)cc2)NC(=O)[C@H]2NC(=O)[C@H](CCCCNC(C)=O)NC(=O)[C@H](Cc3c[nH]c4c(C)cccc34)NC(=O)[C@H]([C@@H](C)O)NC(=O)[C@H](CC(N)=O)NC(=O)[C@@H](NC(C)=O)C(C)(C)SSC2(C)C)CCOCC1)C(N)=O)NC(=O)CCCCCCCCCCCCCCCCC(=O)O [compound 50, MeCO-Pen(3)-N-T-7MeW-K(Ac)-Pen(3)-AEF-2Nal-THP-K(d)-N-3Pya-Sar-K(PEG2PEG2gEC18OH)-CONH2] | < 0.0005
6 | 0.05 to 0.5 | CC(=O)N[C@H](CCCNC(=N)N)C(=O)N[C@@H]1C(=O)N[C@@H](CC(N)=O)C(=O)N[C@@H]([C@@H](C)O)C(=O)N[C@@H](Cc2c[nH]c3c(C)cccc23)C(=O)N[C@@H](CCCCNC(=O)CCC(=O)N[C@H](CC(=O)O)C[N+](C)(C)C)C(=O)N[C@H](C(=O)N[C@@H](Cc2ccc(OCCN)cc2)C(=O)N[C@@H](Cc2ccc3ccccc3c2)C(=O)NC2(C(=O)N[C@@H](CCC(=O)O)C(=O)N[C@@H](CC(N)=O)C(=O)N[C@@H](Cc3cccnc3)C(=O)N(C)CC(=O)N[C@@H](CCCCNC(=O)COCCOCCNC(=O)COCCOCCNC(=O)CC[C@H](NC(=O)CCCCCCCCCCCCCCCCC(=O)O)C(=O)O)C(N)=O)CCOCC2)C(C)(C)SSC1(C)C [compound 52, MeCO-r-Pen(3)-N-T-7MeW-K(d)-Pen(3)-AEF-2Nal-THP-E-N-3Pya-Sar-K(PEG2PEG2gEC18OH)-CONH2] (Ac-[dR][Pen]NT[Trp(7-Me)]K([Suc-X2])[Pen][AEF][2Nal][Thp]EN[3Pal][Sar]K([AEEA-AEEA-γGlu-C18 diacid])-NH2; disulfide 2-7) | < 0.0005
7 | 0.05 to 0.5 | CC(=O)NCCCC[C@@H]1NC(=O)[C@H](Cc2c[nH]c3c(C)cccc23)NC(=O)[C@H]([C@@H](C)O)NC(=O)[C@H](CCCCNC(=O)CCC(=O)N[C@H](CC(=O)O)C[N+](C)(C)C)NC(=O)[C@@H](NC(=O)[C@@H](CCCNC(=N)N)NC(C)=O)C(C)(C)SSC(C)(C)[C@@H](C(=O)N[C@@H](Cc2ccc(OCCN)cc2)C(=O)N[C@@H](Cc2ccc3ccccc3c2)C(=O)NC2(C(=O)N[C@@H](CCC(=O)O)C(=O)N[C@@H](CC(N)=O)C(=O)N[C@@H](Cc3cccnc3)C(=O)N(C)CC(=O)N[C@@H](CCCCNC(=O)COCCOCCNC(=O)COCCOCCNC(=O)CC[C@H](NC(=O)CCCCCCCCCCCCCCCCC(=O)O)C(=O)O)C(N)=O)CCOCC2)NC1=O [compound 53, MeCO-r-Pen(3)-K(d)-T-7MeW-K(Ac)-Pen(3)-AEF-2Nal-THP-E-N-3Pya-Sar-K(PEG2PEG2gEC18OH)-CONH2] (Ac-[dR][Pen]K([Suc-X2])T[Trp(7-Me)]K(Ac)[Pen][AEF][2Nal][Thp]EN[3Pal][Sar]K([AEEA-AEEA-γGlu-C18 diacid])-NH2; disulfide 2-7) | < 0.0005
8 | < 0.05 | CC(=O)NCCCC[C@@H]1NC(=O)[C@H](Cc2c[nH]c3c(C)cccc23)NC(=O)[C@](C)([C@@H](C)O)NC(=O)C(CC(N)=O)NC(=O)[C@@H](NC(=O)[C@@H](CCCNC(=N)N)NC(C)=O)C(C)(C)SSC(C)(C)[C@@H](C(=O)N[C@@H](Cc2ccc(OCCN)cc2)C(=O)N[C@@H](Cc2ccc3ccccc3c2)C(=O)NC2(C(=O)N[C@@H](CCCCNC(=O)CCOCCOCCOCCOCCNC(=O)CCCC[C@@H]3SC[C@@H]4NC(=O)N[C@@H]43)C(=O)N[C@@H](CC(N)=O)C(=O)N[C@@H](Cc3cccnc3)C(=O)N(C)CC(=O)N[C@@H](CCCCNC(=O)COCCOCCNC(=O)COCCOCCNC(=O)CC[C@H](NC(=O)CCCCCCCCCCCCCCCCC(=O)O)C(=O)O)C(N)=O)CCOCC2)NC1=O (stereo partly drawn) [compound 56, MeCO-r-Pen(3)-N-T-7MeW-K(Ac)-Pen(3)-AEF-2Nal-THP-K(BiotinPEG4)-N-3Pya-Sar-K(PEG2PEG2gEC18OH)-CONH2] (Ac-[dR][Pen][ξN][αMeT][Trp(7-Me)]K(Ac)[Pen][AEF][2Nal][Thp]K([PEG4-Biotin])N[3Pal][Sar]K([AEEA-AEEA-γGlu-C18 diacid])-NH2; disulfide 2-7) | < 0.0005
